Measured values: patent US11578069B2, “Compounds for inhibition of α4 β7 integrin” (Gilead Sciences, Inc., priority 2019, dated 2023)

Columns and labels:
[1] = target: T1, α4β7 integrin (Homo sapiens, UniProt P13612+P26010); assay: α4β7 Integrin Cell Capture Assay; format: cell-based; conditions: capture of α4β7 integrin expressing RPM18866 cells on MadCAM-1 extracellular domain-coated plate
T1 construct: monitoring the capture of α4β7 integrin expressing cells; endogenous in cells; host or cells: RPMI8866
T1 sequence (P13612 34-1032): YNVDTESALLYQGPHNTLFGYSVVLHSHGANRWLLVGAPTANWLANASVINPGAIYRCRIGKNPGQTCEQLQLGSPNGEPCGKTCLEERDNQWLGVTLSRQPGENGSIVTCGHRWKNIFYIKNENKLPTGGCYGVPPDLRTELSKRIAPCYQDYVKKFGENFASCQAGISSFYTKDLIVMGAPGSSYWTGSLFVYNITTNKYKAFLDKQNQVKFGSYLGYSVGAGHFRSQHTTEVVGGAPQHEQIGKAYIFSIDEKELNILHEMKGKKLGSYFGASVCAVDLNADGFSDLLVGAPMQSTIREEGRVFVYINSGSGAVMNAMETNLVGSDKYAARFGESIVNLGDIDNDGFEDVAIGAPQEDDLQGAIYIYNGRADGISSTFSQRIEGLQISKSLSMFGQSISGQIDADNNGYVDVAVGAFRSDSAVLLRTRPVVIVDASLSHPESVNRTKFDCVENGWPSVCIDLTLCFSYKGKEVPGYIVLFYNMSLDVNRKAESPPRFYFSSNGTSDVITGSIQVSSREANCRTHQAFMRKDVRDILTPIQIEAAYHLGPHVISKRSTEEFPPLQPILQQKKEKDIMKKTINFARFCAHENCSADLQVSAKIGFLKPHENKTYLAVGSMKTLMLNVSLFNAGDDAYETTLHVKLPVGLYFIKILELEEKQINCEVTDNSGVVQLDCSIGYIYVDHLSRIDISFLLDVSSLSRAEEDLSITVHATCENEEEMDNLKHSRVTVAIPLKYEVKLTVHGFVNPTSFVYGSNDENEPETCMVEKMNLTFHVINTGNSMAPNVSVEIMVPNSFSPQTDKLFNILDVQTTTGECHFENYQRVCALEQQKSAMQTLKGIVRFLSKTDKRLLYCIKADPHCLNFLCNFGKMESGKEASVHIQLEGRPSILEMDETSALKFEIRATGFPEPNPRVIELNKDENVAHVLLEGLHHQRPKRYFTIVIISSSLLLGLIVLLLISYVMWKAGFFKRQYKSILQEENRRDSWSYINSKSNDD
T1 sequence (P26010 20-798): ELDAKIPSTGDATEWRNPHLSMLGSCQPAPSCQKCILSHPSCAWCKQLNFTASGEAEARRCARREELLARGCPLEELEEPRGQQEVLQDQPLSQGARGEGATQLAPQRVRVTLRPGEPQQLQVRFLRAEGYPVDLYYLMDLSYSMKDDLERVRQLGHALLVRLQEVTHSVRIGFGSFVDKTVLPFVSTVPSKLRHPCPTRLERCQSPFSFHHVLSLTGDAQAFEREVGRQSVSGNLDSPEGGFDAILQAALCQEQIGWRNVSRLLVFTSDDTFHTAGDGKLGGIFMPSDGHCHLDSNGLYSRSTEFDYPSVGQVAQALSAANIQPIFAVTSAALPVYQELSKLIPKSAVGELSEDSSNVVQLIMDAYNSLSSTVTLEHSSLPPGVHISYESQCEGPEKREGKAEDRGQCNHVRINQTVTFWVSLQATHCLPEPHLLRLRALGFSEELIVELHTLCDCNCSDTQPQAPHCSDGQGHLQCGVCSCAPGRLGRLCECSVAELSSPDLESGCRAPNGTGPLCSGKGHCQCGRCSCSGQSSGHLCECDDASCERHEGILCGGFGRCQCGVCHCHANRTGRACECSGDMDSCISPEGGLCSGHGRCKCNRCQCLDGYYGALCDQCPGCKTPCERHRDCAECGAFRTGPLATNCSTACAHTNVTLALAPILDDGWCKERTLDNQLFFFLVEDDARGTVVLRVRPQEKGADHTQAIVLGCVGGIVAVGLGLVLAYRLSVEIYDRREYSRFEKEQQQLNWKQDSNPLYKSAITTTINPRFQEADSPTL
Summary of the method: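 RPM18866 cells were preincubated with compound for 1 h at 37 °C in DMEM with 0.5% FBS and 0.5 mM MnCl2. They were then allowed to adhere for 30 min at 37 °C to BSA-blocked plates coated with MAdCAM-1 extracellular domain (1.0 µg/mL). After glutaraldehyde/Hoechst fixation and washing, bound cells were counted by imaging, and EC50 was fitted from counts versus concentration.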

[2] = target: T2, α4β1 integrin (Homo sapiens, UniProt P05556+P13612); assay: α4β1 Cell Capture Assay; format: cell-based; conditions: capture of α4β1 expressing Jurkat cells on VCAM-1 extracellular domain-coated plate
T2 construct: monitoring the capture of α4β1 expressing cells; endogenous in cells; host or cells: Jurkat
Summary of the method: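 Jurkat cells in DMEM with 0.5% FBS and 0.5 mM MnCl2 preincubated 1 h at 37° C with compound, then allowed 30 min at 37° C to bind plates coated with recombinant VCAM-1 extracellular domain (0.5 μg/ml). After glutaraldehyde fixation and Hoechst staining, bound cells counted by imaging; EC50 from concentration–response.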

T2 sequence (P05556 21-798, one chain of several): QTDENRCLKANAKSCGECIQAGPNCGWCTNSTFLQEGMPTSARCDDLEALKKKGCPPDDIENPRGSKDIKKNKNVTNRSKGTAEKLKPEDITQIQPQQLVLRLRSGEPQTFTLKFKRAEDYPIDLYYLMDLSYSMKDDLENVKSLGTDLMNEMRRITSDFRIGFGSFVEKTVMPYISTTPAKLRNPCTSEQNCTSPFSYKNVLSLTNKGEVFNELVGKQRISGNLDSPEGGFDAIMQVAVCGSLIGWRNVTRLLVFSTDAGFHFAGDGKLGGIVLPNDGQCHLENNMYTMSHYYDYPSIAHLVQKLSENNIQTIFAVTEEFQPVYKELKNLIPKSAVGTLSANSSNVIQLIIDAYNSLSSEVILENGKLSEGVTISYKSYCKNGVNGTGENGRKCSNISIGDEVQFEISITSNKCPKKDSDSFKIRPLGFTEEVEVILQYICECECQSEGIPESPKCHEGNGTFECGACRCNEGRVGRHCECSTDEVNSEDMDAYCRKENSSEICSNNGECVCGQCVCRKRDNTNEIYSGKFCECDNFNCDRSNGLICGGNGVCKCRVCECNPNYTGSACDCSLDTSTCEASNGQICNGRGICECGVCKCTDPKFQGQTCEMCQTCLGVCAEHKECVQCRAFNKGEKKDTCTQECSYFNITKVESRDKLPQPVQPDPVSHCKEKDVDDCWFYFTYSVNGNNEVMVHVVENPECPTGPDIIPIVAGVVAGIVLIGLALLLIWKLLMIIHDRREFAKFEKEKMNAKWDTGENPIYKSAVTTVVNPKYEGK

SMILES | EC50 ([1]; Table 1) [nM] | EC50 ([2]; Table 1) [nM] | EC50 ([1]; Table 2) [nM] | EC50 ([2]; Table 2) [nM]
Cc1cc(N2CCOC[C@@H]2C(F)(F)F)cc(F)c1C(=O)N[C@@H](Cc1ccc(-n2c(=O)c3c(n(C)c2=O)CCOC3)nc1)C(=O)O [Example 68, (S)-2-(2-fluoro-6-methyl-4-((R)-3-(trifluoromethyl)morpholino)benzamido)-3-(6-(1-methyl-2,4-dioxo-1,5,7,8-tetrahydro-2H-pyrano[4,3-d]pyrimidin-3(4H)-yl)pyridin-3-yl)propanoic acid] | 0.3 | 14.9 | – | –
Cc1cc(N2CCOC[C@@H]2CC(F)F)cc(F)c1C(=O)N[C@@H](Cc1ccc(-n2c(=O)c3ccncc3n(C)c2=O)nc1)C(=O)O [Example 69, (S)-2-(4-((S)-3-(2,2-difluoroethyl)morpholino)-2-fluoro-6-methylbenzamido)-3-(6-(1-methyl-2,4-dioxo-1,4-dihydropyrido[3,4-d]pyrimidin-3(2H)-yl)pyridin-3-yl)propanoic acid] | 0.2 | 20.8 | – | –
Cc1cc(N2CCOC[C@@H]2CC(F)F)cc(F)c1C(=O)N[C@@H](Cc1ccc(-n2c(=O)c3c(n(C)c2=O)COC3)cc1)C(=O)O [Example 70, (S)-2-(4-((S)-3-(2,2-difluoroethyl)morpholino)-2-fluoro-6-methylbenzamido)-3-(4-(1-methyl-2,4-dioxo-1,2,5,7-tetrahydrofuro[3,4-d]pyrimidin-3(4H)-yl)phenyl)propanoic acid] | 3.9 | 2.4 | – | –
Cc1cc(N2CCOC[C@@H]2C(F)(F)F)cc(F)c1C(=O)N[C@@H](Cc1ccc(-n2c(=O)c3c(C#N)cccc3n(C)c2=O)nc1)C(=O)O [Example 72] | – | – | 0.18 | 4
Cc1cc(N2CCOC[C@@H]2C(F)(F)F)cc(F)c1C(=O)N[C@@H](Cc1ccc(-n2c(=O)c3cc(C#N)ccc3n(C)c2=O)nc1)C(=O)O [Example 74] | – | – | 0.14 | 5.2
Cc1cc(N2CCOC[C@@H]2C(F)(F)F)cc(F)c1C(=O)N[C@@H](Cc1ccc(-n2c(=O)c3ccc(C#N)cc3n(C)c2=O)nc1)C(=O)O [Example 76] | – | – | 0.16 | 4.9
COc1cnc2c(=O)n(-c3ccc(C[C@H](NC(=O)c4c(C)cc(N5CCOC[C@@H]5C(F)(F)F)cc4F)C(=O)O)cn3)c(=O)n(C)c2c1 [Example 78] | – | – | 0.16 | 3.4
Cc1cc(N2CCOC[C@@H]2C(F)(F)F)cc(F)c1C(=O)N[C@@H](Cc1cc(F)c(-n2c(=O)c3ccncc3n(C)c2=O)c(F)c1)C(=O)O [Example 80] | – | – | 0.06 | 2.1
Cn1c(=O)n(-c2c(F)cc(C[C@H](NC(=O)c3c(F)cc(N4CCOC[C@@H]4C(F)(F)F)cc3F)C(=O)O)cc2F)c(=O)c2ccncc21 [Example 82] | – | – | 0.15 | 4.5
Cc1cc(N2CCOC[C@@H]2C(F)(F)F)cc(F)c1C(=O)N[C@@H](Cc1ccc(-n2c(=O)c3ccncc3n(C)c2=O)c(F)c1)C(=O)O [Example 84] | – | – | 0.05 | 1.7
Cc1cc(N2CCOC[C@H]2CC(F)F)cc(F)c1C(=O)N[C@@H](Cc1ccc(-n2c(=O)c3ccncc3n(C)c2=O)nc1)C(=O)O [Example 85] | – | – | 3.9 | 17.9
Cc1cc(N2CCOC[C@H]2CC(F)(F)F)cc(F)c1C(=O)N[C@@H](Cc1ccc(-n2c(=O)c3ccncc3n(C)c2=O)nc1)C(=O)O [Example 86] | – | – | 4.2 | 46.1
Cc1cc(N2CCOC[C@@H]2CC(F)(F)F)cc(F)c1C(=O)N[C@@H](Cc1ccc(-n2c(=O)c3ccncc3n(C)c2=O)nc1)C(=O)O [Example 87] | – | – | 0.9 | 19.7
